{"source": "patent US20250195680A1", "about": "“CANCER TREATMENT WITH ANTI-CLAUDIN 18.2 ADC” (priority 2023, published 2025)", "origin": "cited, not measured here", "tested_on": "gastric cancer", "details": "combined with CAPOX or mFOLFOX6 vs chemotherapy alone"}
{"substance": "zolbetuximab: anti-CLDN18.2 monoclonal antibody", "values": [{"measurement": "efficacy in treating gastric cancer", "value": "effective in treating gastric cancer"}]}
